From patent US10239887B2, “Positive allosteric modulators of the muscarinic acetylcholine receptor M4” (Vanderbilt University, priority 2016, dated 2019)

Target: T1, human mAChR M4 (Homo sapiens, UniProt P08173)
T1 sequence (P08173 1-479): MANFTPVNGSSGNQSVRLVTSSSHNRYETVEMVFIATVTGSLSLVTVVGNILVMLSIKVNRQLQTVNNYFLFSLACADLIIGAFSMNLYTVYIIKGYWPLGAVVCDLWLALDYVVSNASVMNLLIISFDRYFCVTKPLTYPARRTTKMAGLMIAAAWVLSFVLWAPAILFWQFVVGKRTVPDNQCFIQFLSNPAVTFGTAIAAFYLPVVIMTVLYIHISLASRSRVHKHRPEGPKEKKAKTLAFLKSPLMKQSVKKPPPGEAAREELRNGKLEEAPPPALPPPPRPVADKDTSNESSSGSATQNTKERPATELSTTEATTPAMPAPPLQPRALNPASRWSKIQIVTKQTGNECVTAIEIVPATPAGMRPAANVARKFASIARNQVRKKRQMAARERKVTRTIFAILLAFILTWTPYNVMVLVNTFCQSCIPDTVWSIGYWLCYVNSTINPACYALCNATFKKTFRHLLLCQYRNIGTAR
Experiment: mAChR M4 cell-based functional assay (calcium flux), human M4
Details: Table 10; for EC50: Human M4 EC50 (nM); for Emax: % ACh maximum at 30 μM

[1] = calcium flux, PAM activity with EC20 acetylcholine

Row | EC50 [1] [nM] | Emax [%] | EC50 (unit μM (bounds)) [nM] | SMILES
1 | 27.7 | 87.4 |  | Cc1nnc2sc3c(NCc4ccc(C(=O)NC5CC(F)C5)cc4)ncnc3c2c1C (centres unmarked) [Compound 151, 4-[[(3,4-dimethylpyrimido [4′,5′:4,5]thieno[2,3-c]pyridazin-8-yl)amino]methyl]-N-(3-fluorocyclobutyl) benzamide]
2 | 59.2 | 86.9 |  | Cc1nnc2sc3c(NCc4ccc(C(=O)NC5CC(F)(F)C5)cc4)ncnc3c2c1C [Compound 152, N-(3,3-difluorocyclobutyl)-4-[[(3,4-dimethylpyrimido [4′,5′:4,5]thieno[2,3-c]pyridazin-8-yl)amino]methyl]benzamide]
3 | 114 | 87.4 |  | Cc1nnc2sc3c(NCc4ccc(C(=O)NC5CCCC5)cc4)ncnc3c2c1C [Compound 153, N-cyclopentyl-4-[[(3,4-dimethylpyrimido [4′,5′:4,5]thieno[2,3-c]pyridazin-8-yl)amino]methyl]benzamide]
4 | 109 | 87.2 |  | Cc1nnc2sc3c(NCc4ccc(C(=O)NC5CC6(COC6)C5)cc4)ncnc3c2c1C [Compound 154, 4-[[(3,4-dimethylpyrimido [4′,5′:4,5]thieno[2,3-c]pyridazin-8-yl)amino]methyl]-N-(2-oxaspiro [3.3]heptan-6-yl)benzamide]
5 | 174 | 88.1 |  | Cc1nnc2sc3c(NCc4ccc(C(=O)NC(C)C)cc4)ncnc3c2c1C [Compound 155, 4-[[(3,4-dimethylpyrimido [4′,5′:4,5]thieno[2,3-c]pyridazin-8-yl)amino]methyl]-N-isopropyl-benzamide]
6 | 590 | 84.9 |  | Cc1nnc2sc3c(NCc4ccc(C(=O)N5CC(F)(F)C5)cc4)ncnc3c2c1C [Compound 156, (3,3-difluoroazetidin-1-yl)-[4-[[(3,4-dimethlpyrimido [4′,5′:4,5]thieno[2,3-c]pyridazin-8-yl)amino]methyl]phenyl]methanone]
7 | 244 | 86.1 |  | Cc1nnc2sc3c(NCc4ccc(C(=O)N[C@H](C)C(F)(F)F)cc4)ncnc3c2c1C [Compound 157, 4-[[(3,4-dimethylpyrimido [4′,5′:4,5]thieno[2,3-c]pyridazin-8-yl)amino]methyl]-N-[(1R)-2,2,2-trifluoro-1-methyl-ethyl]benzamide]
8 | 220 | 85 |  | Cc1nnc2sc3c(NCc4ccc(C(=O)NC(C)C(C)(C)CO)cc4)ncnc3c2c1C (centres unmarked) [Compound 158, 4-[[(3,4-dimethylpyrimido [4′,5′:4,5]thieno[2,3-c]pyridazin-8-yl)amino]methyl]-N-(3-hydroxy-1,2,2-trimethyl-propyl) benzamide]
9 | 380 | 84.8 |  | Cc1nnc2sc3c(NCc4ccc(C(=O)NC5CCCCC5)cc4)ncnc3c2c1C [Compound 159, N-cyclohexyl-4-[[(3,4-dimethylpyrimido [4′,5′:4,5]thieno[2,3-c]pyridazin-8-yl)amino]methyl]benzamide]
10 | 980 | 86 |  | Cc1nnc2sc3c(NCc4ccc(C(=O)NC5CCC(C)(C)CC5)cc4)ncnc3c2c1C [Compound 160, N-(4,4-dimethylcyclohexyl)-4-[[(3,4-dimethylpyrimido [4′,5′:4,5]thieno[2,3-c]pyridazin-8-yl)amino]methyl]benzamide]
11 | 84.3 | 80.1 |  | Cc1nnc2sc3c(N4CC(Nc5ccnc(F)c5F)C4)ncnc3c2c1C [Compound 161, N-[1-(3,4-dimethylpyrimido[4′,5′:4,5]thieno[2,3-c]pyridazin-8-yl)azetidin-3-yl]-2,3-difluoro-pyridin-4-amine; 2,2,2-trifluoroacetic acid]
12 | 5630 | 48.3 |  | Cc1nnc2sc3c(NC4CC5(C4)CN(c4ncc(Cl)cc4Cl)C5)ncnc3c2c1C [Compound 162, N-[2-(3,5-dichloro-2-pyridyl)-2-azaspiro[3.3]heptan-6-yl]-3,4-dimethyl-pyrimido[4′,5′:4,5]thieno [2,3-c]pyridazin-8-amine]
13 | 1440 | 42.9 |  | Cc1nnc2sc3c(NC4CC5(C4)CN(c4ncc(F)cc4Cl)C5)ncnc3c2c1C [Compound 163, N-[2-(3-chloro-5-fluoro-2-pyridyl)-2-azaspiro [3.3]heptan-6-yl]-3,4-dimethyl-pyrimido [4′,5′:4,5]thieno[2,3-c] pyridazin-8-amine]
14 | 3500 | 22.7 |  | Cc1nnc2sc3c(NC4CC5(C4)CN(c4ncc(Cl)cc4F)C5)ncnc3c2c1C [Compound 164, N-[2-(5-chloro-3-fluoro-2-pyridyl)-2-azaspiro [3.3]heptan-6-yl]-3,4-dimethyl-pyrimido [4′,5′:4,5]thieno[2,3-c] pyridazin-8-amine]
15 | 2410 | 31.6 |  | Cc1cnc(N2CC3(CC(Nc4ncnc5c4sc4nnc(C)c(C)c45)C3)C2)nc1 [Compound 165, 3,4-dimethyl-N-[2-(5-methylpyrimidin-2-yl)-2-azaspiro[3.3]heptan-6-yl]pyrimido [4′,5′:4,5]thieno[2,3-c] pyridazin-8-amine]
16 | 1210 | 34.7 |  | Cc1ncc(CN2CC3(CC(Nc4ncnc5c4sc4nnc(C)c(C)c45)C3)C2)cn1 [Compound 166, 3,4-dimethyl-N-[2-[(2-methylpyrimidin-5-yl)methyl]-2-azaspiro [3.3]heptan-6-yl]pyrimido [4′,5′:4,5]thieno[2,3-c] pyridazin-8-amine]
17 | 3970 | 29 |  | Cc1nnc2sc3c(NC4CC5(C4)CN(C(=O)CC(F)(F)F)C5)ncnc3c2c1C [Compound 168, 1-[6-[(3,4-dimethylpyrimido [4′,5′:4,5]thieno[2,3-c]pyridazin-8-yl)amino]-2-azaspiro[3.3]heptan-2-yl]-3,3,3-trifluoro-propan-1-one]
18 |  | 34.9 | > 10000 | Cc1nnc2sc3c(NC4CC5(C4)CN(C(=O)C4CCOCC4)C5)ncnc3c2c1C [Compound 169, [6-[(3,4-dimethylpyrimido[4′,5′:4,5]thieno[2,3-c]pyridazin-8-yl)amino]-2-azaspiro[3.3]heptan-2-yl]-tetrahydropyran-4-yl-methanone]
19 | 1260 | 41 |  | CCCCCC(=O)N1CC2(CC(Nc3ncnc4c3sc3nnc(C)c(C)c34)C2)C1 [Compound 170, 1-[6-[(3,4-dimethylpyrimido [4′,5′:4,5]thieno[2,3-c]pyridazin-8-yl)amino]-2-azaspiro[3.3]heptan-2-yl]hexan-1-one; 2,2,2-trifluoroacetate acid]
20 | 172 | 30.9 |  | Cc1nnc2sc3c(N4CCC(C(C)(C)O)C4)ncnc3c2c1C (centres unmarked) [Compound 171, 2-[1-(3,4-dimethylpyrimido [4′,5′:4,5]thieno[2,3-c]pyridazin-8-yl)pyrrolidin-3-yl]propan-2-ol]
21 | 2950 | 39.5 |  | Cc1nnc2sc3c(NC4CC5(C4)CN(C(=O)c4ccc(C(F)(F)F)cc4)C5)ncnc3c2c1C [Compound 172, [6-[(3,4-dimethylpyrimido [4′,5′:4,5]thieno[2,3-c]pyridazin-8-yl)amino]-2-azaspiro[3.3]heptan-2-yl]-[4-(trifluoromethyl)phenyl]methanone]
22 | 3310 | 24.4 |  | Cc1nnc2sc3c(N4CCC(C(=O)Nc5ccc(C(F)(F)F)cc5)C4)ncnc3c2c1C (centres unmarked) [Compound 173, 1-(3,4-dimethylpyrimido [4′,5′:4,5]thieno[2,3-c]pyridazin-8-yl)-N-[4-(trifluoromethyl)phenyl] pyrrolidine-3-carboxamide]
23 | 748 | 31 |  | Cc1nnc2sc3c(N4CCC(C(=O)Nc5ccccn5)C4)ncnc3c2c1C (centres unmarked) [Compound 174, 1-(3,4-dimethylpyrimido [4′,5′:4,5]thieno[2,3-c]pyridazin-8-yl)-N-(2-pyridyl)pyrrolidine-3-carboxamide]
24 | 722 | 52.5 |  | Cc1nnc2sc3c(NCc4ccc(F)c(C(C)(C)O)c4)ncnc3c2c1C [Compound 175, 2-[5-[[(3,4-dimethylpyrimido [4′,5′:4,5]thieno[2,3-c]pyridazin-8-yl)amino]methyl]-2-fluoro-phenyl]propan-2-ol]
25 | 511 | 105 |  | Cc1nnc2sc3c(NCc4ccc(F)c(C(=O)NC5CC5)c4)ncnc3c2c1C [Compound 176, N-cyclopropyl-5-[[(3,4-dimethylpyrimido [4′,5′:4,5]thieno[2,3-c]pyridazin-8-yl)amino]methyl]-2-fluoro-benzamide]
26 | 570 | 98.5 |  | Cc1nnc2sc3c(NCc4ccc(F)c(C(=O)NC5CCC5)c4)ncnc3c2c1C [Compound 177, N-cyclobutyl-5-[[(3,4-dimethylpyrimido [4′,5′:4,5]thieno[2,3-c]pyridazin-8-yl)amino]methyl]-2-fluoro-benzamide]
27 | 1030 | 97.1 |  | Cc1nnc2sc3c(NCc4ccc(F)c(C(=O)NC5CCCC5)c4)ncnc3c2c1C [Compound 178, N-cyclopentyl-5-[[(3,4-dimethylpyrimido [4′,5′:4,5]thieno[2,3-c]pyridazin-8-yl)amino]methyl]-2-fluoro-benzamide]
28 | 748 | 95.2 |  | Cc1nnc2sc3c(NCc4ccc(F)c(C(=O)NC(C)C)c4)ncnc3c2c1C [Compound 179, 5-[[(3,4-dimethylpyrimido [4′,5′:4,5]thieno[2,3-c]pyridazin-8-yl)amino]methyl]-2-fluoro-N-isopropyl-benzamide]
